# Source: patent US5352685A, “Thieno[3,2-b]pyridine derivatives” (priority 1992, dated 1994)
# Where a name gives a salt, the structure may show the parent alone.
# Tests used:
# dog gastric contraction = assay: Promoting action of dog gastric contraction; assay type: in vivo, dog (adult mongrel); conditions: Canis lupus familiaris, iv, 0.5 h; i.v.; starved dogs; contraction for 30-minute interval after dose vs. IMC contraction immediately before; read-out: ED50 (dose developing 50% of the IMC contraction)
# Method: 2) Promoting action of dog gastric contraction An implant-type strain-gauge transducer was sutured onto the serosa at the autrum (about 3 cm above pylorus) of adult mongrel dogs, weighed 11 to 15 kg, so as to determine the contraction of the circular muscle. Two weeks or more after the surgery, the gastric contraction was recorded for analysis with a data processing device. […] The dog was put to starvation for about 16 hours. Ten minutes after the completion of one IMC, a test compound was intravenously administered. The contraction for the 30-minute interval thereafter was represented as a percentage (%) to the IMC contraction having occurred immediately before, and the dose developing the 50% contraction was defined as ED50.
# mouse gastric emptying = assay: Promoting action of mouse gastric emptying; assay type: in vivo; conditions: 1 mg/kg, p.o.; 24-hour starved male ddy mice; control group (distilled water) defined as 100%
# Method: Promoting action of mouse gastric emptying Male, ddy mice (body weight; 20 to 25 g) were used. 24-Hour after starvation 1 mg/kg test compounds dissolved in distilled water were orally administered (10 ml/kg). To the control group distilled water was orally administered (10 ml/kg). One hour later, a 2000 ppm phenol red solution (suspended in aqueous 0.5% carboxymethyl cellulose solution) was administered to each mouse (liquid dose; 0.05 ml/mouse). Then, 15 minutes later, the animals were killed to remove the stomachs. The phenol red retained in the stomachs was developed in 20 ml of a 2.75% trisodium phosphate solution, and analyzed with an absorption photometer at a wave length of 540 nm (A). Immediately after the phenol red solution was administered, the animals were killed to quantitatively determine the phenol red left in the stomachs (B). The difference in the amount of phenol red between A and B (B-A) was designated as gastric emptying. The gastric emptying of the test compounds were shown in Table 4 below, provided that the gastric emptying of the control group was defined as 100%.
# [1] = molecular target: T1, 5-HT3 (serotonin 3) receptor (Rattus norvegicus, UniProt P35563); assay: 5-HT3 antagonistic action (antagonistic action of Bezold-Jarish reflex) in anesthetized rat; assay type: in vivo; conditions: iv, 5 min; i.v.; 5-HT 8 μg/kg i.v.; male Wistar rat under urethane anesthesia; read-out: ID50 (dose with inhibition ratio of 50%, Bezold-Jarish reflex)
# T1 construct: from tissue; host or cells: living anaesthetized male Wistar rat (in vivo; endogenous receptor)
# T1 sequence (P35563 24-483): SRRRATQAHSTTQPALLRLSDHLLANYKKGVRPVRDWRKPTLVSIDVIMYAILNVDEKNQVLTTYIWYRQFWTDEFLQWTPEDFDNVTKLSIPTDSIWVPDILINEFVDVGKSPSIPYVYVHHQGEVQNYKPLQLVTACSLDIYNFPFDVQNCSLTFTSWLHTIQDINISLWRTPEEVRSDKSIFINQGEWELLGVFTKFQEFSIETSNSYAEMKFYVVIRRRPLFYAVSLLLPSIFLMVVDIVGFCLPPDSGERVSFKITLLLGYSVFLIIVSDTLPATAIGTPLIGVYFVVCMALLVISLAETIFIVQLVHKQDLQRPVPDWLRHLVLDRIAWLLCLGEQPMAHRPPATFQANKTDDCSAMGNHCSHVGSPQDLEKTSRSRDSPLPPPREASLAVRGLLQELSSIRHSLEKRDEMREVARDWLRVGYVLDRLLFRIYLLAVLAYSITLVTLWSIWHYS
# Method: 3) 5-HT3 antagonistic action (antagonistic action of Bezold-Jarish reflex)
# According to the following method, the assessment of a compound in terms of the antagonistic action of Bezold-Jarish reflex triggered by 5-HT was carried out in a rat under anesthesia.
# A male Wistar rat, weighed 300 to 400 g, was anesthetized with an intra-parenteral dose of 1.2 g/kg urethane, to monitor the heart rate triggered by electrocardiography. Five minutes after saline was intravenously administered (0.5 ml/kg) to the rat, 5-HT (8 μg/kg) dissolved in saline (0.5 ml/kg) was intravenously administered firstly, to measure the change in […] (A). To the same rat after 10 minutes interval, the test compound was intravenously administered, 5 minutes later 5-HT was administered in the same fashion, to measure the change in heart rate (B). Based on these values, the inhibition ratio of the test compound was calculated by the following formula:
# inhibition ratio=(1-B/A)×100
# Also, the dose with the inhibition ratio of 50% was defined as the ID50 of the test compound.
# [2] = Acute toxicity, oral, mice; assay type: in vivo, mouse (male ddy); conditions: orally 1000 mg/kg; 3 mice per compound; observation 7 days
# Method: For the test of acute toxicity, male ddy mice (body weight; 25 to 30 g, 3 mice for one test compound) were used. Test compound of Example 1 or 2 was orally administered at 1000 mg/kg.
SMILES,ED50 (dog gastric contraction) [µg/kg],Promoting Action of Gastric Emptying (%) (mouse gastric emptying),ED50 [1] [µg/kg],death (acute toxicity) [2]
"COc1cc(N)c(Cl)cc1C(=O)NC1CCN2CCCC1C2 (stereo not drawn) [BRL-24924, (endo)-4-amino-5-chloro-2-methoxy-N-[1-azabicyclo-(3.3.1)-non-4-yl]-benzamide hydrochloride, reference compound]",100,–,–,–
"O=C(NC1CN2CCC1CC2)c1cnc2ccsc2c1O (stereo not shown) [Example 1, N-(1-azabicyclo[2.2.2]oct-3-yl)-7-hydroxythieno[3.2-b]pyridine-6-carboxamide]",10,147,0.15,no death
"O=C(N[C@H]1CN2CCC1CC2)c1cnc2ccsc2c1O [Example 2, R-N-(1-azabicyclo[2.2.2]oct-3-yl)-7-hydroxythieno[3.2-b]pyridine-6-carboxamide]",5,185,–,no death
Cc1csc2c(O)c(C(=O)NC3CN4CCC3CC4)cnc12 (stereo not shown) [Example 11],–,152,–,–
"CN1[C@@H]2CC[C@H]1C[C@@H](NC(=O)c1cn(C)c3ccsc3c1=O)C2 [Example 10, (endo)-N-(8-methyl-8-azabicyclo[3.2.1]oct-3-yl)-4,7-dihydro-4-methyl-7-oxothieno[3.2-b]pyridine-6-carboxamide]",–,140,–,–
